Measurements from patent publication US10799507B2, “5-(7H-pyrrolo[2,3-d]pyrimidin-4-yl)-5-azaspiro[2.5]octane-8-carboxylic acid derivatives as novel JAK kinase inhibitors” (LEO Pharma A/S, priority 2017, dated 2020).

Legend:
[1] = molecular target: JAK2 (Homo sapiens (Human), UniProt O60674); assay: JAK kinase assay (HTRF), JAK2; type: biochemical; settings: catalytic domain, ATP at Km (4 μM)
Procedure, shortened: (§1)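 Catalytic-domain human JAK1 (GST-tagged, aa 850-1154) or His-tagged JAK2, baculovirus-expressed, phosphorylated 1 µM biotinylated TK peptide at Km ATP (JAK1 7 µM, 10 mM MgCl2, 50 nM SEB; JAK2 4 µM, 5 mM MgCl2) in pH 7.0 Hepes, 20-30 min RT. EDTA stop; overnight streptavidin-XL665/cryptate HTRF read.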

[2] = molecular target: JAK3 (Homo sapiens (Human), UniProt P52333); assay: JAK kinase assay (HTRF), JAK3; type: biochemical; settings: catalytic domain, ATP at Km (2 μM)
JAK3, sequence (P52333 822-1111): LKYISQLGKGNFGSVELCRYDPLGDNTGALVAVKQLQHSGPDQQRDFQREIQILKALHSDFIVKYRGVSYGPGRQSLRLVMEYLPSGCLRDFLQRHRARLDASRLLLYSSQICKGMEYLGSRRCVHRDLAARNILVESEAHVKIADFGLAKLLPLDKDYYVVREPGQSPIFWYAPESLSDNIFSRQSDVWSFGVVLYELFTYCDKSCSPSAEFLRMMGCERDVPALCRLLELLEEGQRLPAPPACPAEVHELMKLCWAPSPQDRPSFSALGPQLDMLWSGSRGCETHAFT
Procedure, shortened: (§2)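 HTRF read-out of biotinylated TK peptide phosphorylation (1 μM) after a 20-30 min RT reaction in pH 7.0 Hepes buffer with 5 mM MgCl2 and 0.75% DMSO. JAK3 (His-tagged catalytic domain) used 2 μM ATP; TYK2 (GST-tagged, aa 871-1187) used 13 μM ATP plus 50 nM SEB, each at ATP Km.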

[3] = in vitro metabolic stability in human liver microsomes; type: in vitro ADME; settings: human, liver microsomes, 0.5 μM compound, 0.5 mg/mL microsomes, NADPH, 40 min, 37° C.; read-out: Human liver microsome Clapp (apparent intrinsic clearance)
Method: To assess the in vitro metabolic stability, the compounds (0.5 μM) were incubated in duplicates with human liver microsomes (0.5 mg/mL) in phosphate buffer and NADPH, in 96-well plates for 40 min (37° C.), using a liquid handling robot (Hamilton Microlab Star). Sample aliquots were taken at 0, 5, 10, 20 and 40 min, and dispensed into cold acetonitrile, in order to stop the reactions. The plates were centrifuged for 30 minutes before the samples were analyzed using liquid chromatography coupled to a time-of-flight mass spectrometer (AB Sciex API5600). The compound depletion over time was used to estimate the elimination rate constant, from which the apparent intrinsic clearance, Clapp, was calculated and the values are listed in Table 2.

[4] = molecular target: JAK1 (Homo sapiens (Human), UniProt P23458); assay: JAK kinase assay (HTRF), JAK1; type: biochemical; settings: catalytic domain, ATP at Km (7 μM)
JAK1, sequence (P23458 850-1154): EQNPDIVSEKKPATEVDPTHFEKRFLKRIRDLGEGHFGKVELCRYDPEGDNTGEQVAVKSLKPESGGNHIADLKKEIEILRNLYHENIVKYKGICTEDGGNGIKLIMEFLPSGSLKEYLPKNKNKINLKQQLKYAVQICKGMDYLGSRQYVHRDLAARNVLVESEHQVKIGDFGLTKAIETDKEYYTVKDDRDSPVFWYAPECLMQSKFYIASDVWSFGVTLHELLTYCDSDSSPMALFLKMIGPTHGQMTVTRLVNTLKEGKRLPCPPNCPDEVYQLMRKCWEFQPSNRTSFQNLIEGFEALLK
Procedure, shortened: as §1

[5] = molecular target: TYK2 (Homo sapiens (Human), UniProt P29597); assay: JAK kinase assay (HTRF), TYK2; type: biochemical; settings: catalytic domain, ATP at Km (13 μM)
TYK2, sequence (P29597 871-1187): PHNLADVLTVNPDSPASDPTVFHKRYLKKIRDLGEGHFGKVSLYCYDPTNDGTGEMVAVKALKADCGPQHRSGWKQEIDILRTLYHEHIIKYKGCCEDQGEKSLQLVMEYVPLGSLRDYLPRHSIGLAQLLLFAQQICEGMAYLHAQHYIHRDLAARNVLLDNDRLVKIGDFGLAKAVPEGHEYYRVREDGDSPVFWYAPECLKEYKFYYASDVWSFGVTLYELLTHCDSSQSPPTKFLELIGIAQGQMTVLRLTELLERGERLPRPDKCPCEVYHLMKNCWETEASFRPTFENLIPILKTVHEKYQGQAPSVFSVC
Procedure, shortened: as §2

JAK2, sequence (O60674 849-1124): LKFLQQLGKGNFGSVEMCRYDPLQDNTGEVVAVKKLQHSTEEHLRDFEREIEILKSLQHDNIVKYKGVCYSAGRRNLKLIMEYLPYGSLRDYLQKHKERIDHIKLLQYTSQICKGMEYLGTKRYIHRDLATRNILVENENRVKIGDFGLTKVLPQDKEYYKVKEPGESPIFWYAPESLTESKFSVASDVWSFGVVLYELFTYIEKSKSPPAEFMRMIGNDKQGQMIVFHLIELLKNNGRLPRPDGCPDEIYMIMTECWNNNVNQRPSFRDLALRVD

N#Cc1ccc([C@@H](O)CNC(=O)[C@H]2CCN(c3ncnc4[nH]ccc34)CC23CC3)cc1 [Example 29, (8S)-N-[(2R)-2-(4-cyanophenyl)-2-hydroxy-ethyl]-5-(7H-pyrrolo[2,3-d]pyrimidin-4-yl)-5-azaspiro[2.5]octane-8-carboxamide]
EC50 [1]: 2.9 nM | EC50 [2]: 6.5 nM | CLint scaled at 0.5 μM [3]: 115 mL/min/kg | EC50 [4]: 1.4 nM | EC50 [5]: 40.4 nM

N#Cc1ccc(CNC(=O)[C@H]2CCN(c3ncnc4[nH]ccc34)CC23CC3)c(F)c1 [Example 31, (8S)-N-[(4-cyano-2-fluoro-phenyl)methyl]-5-(7H-pyrrolo[2,3-d]pyrimidin-4-yl)-5-azaspiro[2.5]octane-8-carboxamide]
EC50 [1]: 6.4 nM | EC50 [2]: 15.6 nM | CLint scaled at 0.5 μM [3]: 166 mL/min/kg | EC50 [4]: 1.4 nM | EC50 [5]: 63.7 nM

O=C(NC[C@@H](O)C1CCCC1)[C@H]1CCN(c2ncnc3[nH]ccc23)CC12CC2 [Example 32, (8S)-N-[(2S)-2-cyclopentyl-2-hydroxy-ethyl]-5-(7H-pyrrolo[2,3-d]pyrimidin-4-yl)-5-azaspiro[2.5]octane-8-carboxamide]
EC50 [1]: 5.2 nM | EC50 [2]: 8.3 nM | CLint scaled at 0.5 μM [3]: 159 mL/min/kg | EC50 [4]: 1.8 nM | EC50 [5]: 25.4 nM

O=C(N[C@@H](CO)c1ccc(F)cc1F)[C@H]1CCN(c2ncnc3[nH]ccc23)CC12CC2 [Example 34, (8S)-N-[(1R)-1-(2,4-difluorophenyl)-2-hydroxy-ethyl]-5-(7H-pyrrolo[2,3-d]pyrimidin-4-yl)-5-azaspiro[2.5]octane-8-carboxamide]
EC50 [1]: 3.7 nM | EC50 [2]: 6.4 nM | CLint scaled at 0.5 μM [3]: 69 mL/min/kg | EC50 [4]: 1.9 nM | EC50 [5]: 32.9 nM

O=C(NCC1(CO)CC(F)(F)C1)C1CCN(c2ncnc3[nH]ccc23)CC12CC2 (stereo not shown) [Example 35, N-[[3,3-difluoro-1-(hydroxymethyl)cyclobutyl]methyl]-5-(7H-pyrrolo[2,3-d]pyrimidin-4-yl)-5-azaspiro[2.5]octane-8-carboxamide]
EC50 [1]: 4.8 nM | EC50 [2]: 8.6 nM | CLint scaled at 0.5 μM [3]: 41 mL/min/kg | EC50 [4]: 1.9 nM | EC50 [5]: 71.8 nM

N#Cc1ccc([C@@H](O)CNC(=O)[C@H]2CCN(c3ncnc4[nH]ccc34)CC23CC3)nc1 [Example 36, (8S)-N-[(2S)-2-(5-cyano-2-pyridyl)-2-hydroxy-ethyl]-5-(7H-pyrrolo[2,3-d]pyrimidin-4-yl)-5-azaspiro[2.5]octane-8-carboxamide]
EC50 [1]: 8.7 nM | EC50 [2]: 25.2 nM | CLint scaled at 0.5 μM [3]: 72 mL/min/kg | EC50 [4]: 2 nM | EC50 [5]: 70.5 nM

Cc1cc(C#N)ccc1[C@H](CO)NC(=O)[C@H]1CCN(c2ncnc3[nH]ccc23)CC12CC2 [Example 37, (8S)-N-[(1R)-1-(4-cyano-2-methyl-phenyl)-2-hydroxy-ethyl]-5-(7H-pyrrolo[2,3-d]pyrimidin-4-yl)-5-azaspiro[2.5]octane-8-carboxamide]
EC50 [1]: 10.2 nM | EC50 [2]: 36.4 nM | CLint scaled at 0.5 μM [3]: 91 mL/min/kg | EC50 [4]: 2 nM | EC50 [5]: 102 nM

O=C(NCC(O)c1ccc(F)cn1)[C@H]1CCN(c2ncnc3[nH]ccc23)CC12CC2 (stereo partly drawn) [Example 38, (8S)-N-[2-(5-fluoro-2-pyridyl)-2-hydroxy-ethyl]-5-(7H-pyrrolo[2,3-d]pyrimidin-4-yl)-5-azaspiro[2.5]octane-8-carboxamide]
EC50 [1]: 9 nM | EC50 [2]: 33.6 nM | CLint scaled at 0.5 μM [3]: 73 mL/min/kg | EC50 [4]: 2.2 nM | EC50 [5]: 32.1 nM

N#Cc1ccc(C(O)CNC(=O)C2CCN(c3ncnc4[nH]ccc34)CC23CC3)cc1 (stereo not shown) [Example 39, N-[2-(4-cyanophenyl)-2-hydroxy-ethyl]-5-(7H-pyrrolo[2,3-d]pyrimidin-4-yl)-5-azaspiro[2.5]octane-8-carboxamide]
EC50 [1]: 4.8 nM | EC50 [2]: 11.5 nM | CLint scaled at 0.5 μM [3]: 186 mL/min/kg | EC50 [4]: 2.4 nM | EC50 [5]: 75.4 nM

Cc1cc([C@H](O)[C@H](C)NC(=O)[C@H]2CCN(c3ncnc4[nH]ccc34)CC23CC3)ccc1F [Example 40, (8S)-N-[(1S,2S)-2-(4-fluoro-3-methyl-phenyl)-2-hydroxy-1-methyl-ethyl]-5-(7H-pyrrolo[2,3-d]pyrimidin-4-yl)-5-azaspiro[2.5]octane-8-carboxamide]
EC50 [1]: 8.3 nM | EC50 [2]: 39.5 nM | CLint scaled at 0.5 μM [3]: > 200 mL/min/kg | EC50 [4]: 2.4 nM | EC50 [5]: 40.6 nM

C[C@H](NC(=O)[C@H]1CCN(c2ncnc3[nH]ccc23)CC12CC2)[C@@H](O)c1ccc(F)cn1 [Example 41, (8S)-N-[(1S,2R)-2-(5-fluoro-2-pyridyl)-2-hydroxy-1-methyl-ethyl]-5-(7H-pyrrolo[2,3-d]pyrimidin-4-yl)-5-azaspiro[2.5]octane-8-carboxamide]
EC50 [1]: 5 nM | EC50 [2]: 48.9 nM | CLint scaled at 0.5 μM [3]: 166 mL/min/kg | EC50 [4]: 2.5 nM | EC50 [5]: 33.5 nM

O=C(N[C@H](CO)C(=O)OCC1CC(F)(F)C1)[C@H]1CCN(c2ncnc3[nH]ccc23)CC12CC2 [Example 42, (3,3-difluorocyclobutyl)methyl (2R)-3-hydroxy-2-[[(8S)-5-(7H-pyrrolo[2,3-d]pyrimidin-4-yl)-5-azaspiro[2.5]octane-8-carbonyl]amino]propanoate]
EC50 [1]: 6.7 nM | EC50 [2]: 20.2 nM | CLint scaled at 0.5 μM [3]: > 200 mL/min/kg | EC50 [4]: 2.7 nM | EC50 [5]: 51.3 nM

C[C@H](NC(=O)[C@H]1CCN(c2ncnc3[nH]ccc23)CC12CC2)[C@@H](O)c1ccc(C#N)cc1 [Example 43, (8S)-N-[(1S,2S)-2-(4-cyanophenyl)-2-hydroxy-1-methyl-ethyl]-5-(7H-pyrrolo[2,3-d]pyrimidin-4-yl)-5-azaspiro[2.5]octane-8-carboxamide]
EC50 [1]: 5.2 nM | EC50 [2]: 8.8 nM | CLint scaled at 0.5 μM [3]: 166 mL/min/kg | EC50 [4]: 2.8 nM | EC50 [5]: 131 nM

Cc1cc([C@H](O)CNC(=O)[C@H]2CCN(c3ncnc4[nH]ccc34)CC23CC3)ncc1F [Example 44, (8S)-N-[(2R)-2-(5-fluoro-4-methyl-2-pyridyl)-2-hydroxy-ethyl]-5-(7H-pyrrolo[2,3-d]pyrimidin-4-yl)-5-azaspiro[2.5]octane-8-carboxamide]
EC50 [1]: 15.8 nM | EC50 [2]: 68.5 nM | CLint scaled at 0.5 μM [3]: > 200 mL/min/kg | EC50 [4]: 3.1 nM | EC50 [5]: 63.2 nM

C[C@H](NC(=O)[C@H]1CCN(c2ncnc3[nH]ccc23)CC12CC2)[C@H](O)c1ccc(F)cc1 [Example 45, (8S)-N-[(1S,2R)-2-(4-fluorophenyl)-2-hydroxy-1-methyl-ethyl]-5-(7H-pyrrolo[2,3-d]pyrimidin-4-yl)-5-azaspiro[2.5]octane-8-carboxamide]
EC50 [1]: 4.6 nM | EC50 [2]: 15.7 nM | CLint scaled at 0.5 μM [3]: > 200 mL/min/kg | EC50 [4]: 3.1 nM | EC50 [5]: 37.9 nM

C[C@H](NC(=O)[C@H]1CCN(c2ncnc3[nH]ccc23)CC12CC2)c1ccc(C#N)cn1 [Example 48, (8S)-N-[(1S)-1-(5-cyano-2-pyridyl)ethyl]-5-(7H-pyrrolo[2,3-d]pyrimidin-4-yl)-5-azaspiro[2.5]octane-8-carboxamide]
EC50 [1]: 10.2 nM | EC50 [2]: 40.3 nM | CLint scaled at 0.5 μM [3]: 48 mL/min/kg | EC50 [4]: 3.2 nM | EC50 [5]: 128 nM

O=C(NCC1(O)CCCC1)[C@H]1CCN(c2ncnc3[nH]ccc23)CC12CC2 [Example 49, (8S)-N-[(1-hydroxycyclopentyl)methyl]-5-(7H-pyrrolo[2,3-d]pyrimidin-4-yl)-5-azaspiro[2.5]octane-8-carboxamide]
EC50 [1]: 15.1 nM | EC50 [2]: 26.1 nM | CLint scaled at 0.5 μM [3]: 35 mL/min/kg | EC50 [4]: 3.4 nM | EC50 [5]: 43.4 nM

O=C(N[C@@H](CO)[C@H](O)c1ccc(F)cc1)[C@H]1CCN(c2ncnc3[nH]ccc23)CC12CC2 [Example 50, (8S)-N-[(1S,2R)-2-(4-fluorophenyl)-2-hydroxy-1-(hydroxymethyl)ethyl]-5-(7H-pyrrolo[2,3-d]pyrimidin-4-yl)-5-azaspiro[2.5]octane-8-carboxamide]
EC50 [1]: 7 nM | EC50 [2]: 22.7 nM | CLint scaled at 0.5 μM [3]: 109 mL/min/kg | EC50 [4]: 3.5 nM | EC50 [5]: 53.2 nM

O=C(NC[C@@H](O)c1ccccc1)[C@H]1CCN(c2ncnc3[nH]ccc23)CC12CC2 [Example 51, (8S)-N-[(2S)-2-hydroxy-2-phenyl-ethyl]-5-(7H-pyrrolo[2,3-d]pyrimidin-4-yl)-5-azaspiro[2.5]octane-8-carboxamide]
EC50 [1]: 11.3 nM | EC50 [2]: 49.2 nM | CLint scaled at 0.5 μM [3]: > 200 mL/min/kg | EC50 [4]: 3.5 nM | EC50 [5]: 40.5 nM

O=C(NCC1(CO)CCCC1)[C@H]1CCN(c2ncnc3[nH]ccc23)CC12CC2 [Example 52, (8S)-N-[[1-(hydroxymethyl)cyclopentyl]methyl]-5-(7H-pyrrolo[2,3-d]pyrimidin-4-yl)-5-azaspiro[2.5]octane-8-carboxamide]
EC50 [1]: 10.2 nM | EC50 [2]: 22.8 nM | CLint scaled at 0.5 μM [3]: 118 mL/min/kg | EC50 [4]: 3.6 nM | EC50 [5]: 38 nM
